According to PubChem BioAssay AID1845217 (Molecular Pharmacology Branch, DTP, NCI, 2023):

Tested on: VA-ES-BJ tumor spheroid viability
Experiment: Anticancer human tumor VA-ES-BJ cell line growth inhibition;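 also: spheroids exposed to compounds for seven days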;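 as to viability, T/C: percent of DMSO vehicle control viability so 100% = untreated growth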
Conditions: spheroids with HUVEC and MSC; for IC50: curve of first compound; for viability, T/C: stronger effect = lower value
How it was run: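 Complex tumor spheroids combined malignant cells with endothelial cells and mesenchymal stem cells. DNA-damaging drugs and DNA repair inhibitors were tested alone and in combination, at half-log dilutions down from clinical Cmax (top 10 microM if Cmax unknown), 0.25% DMSO final.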

[1] = second compound 1 µM, first compound 0.00949 µM
[2] = second compound 1 µM, first compound 0.03 µM
[3] = second compound 1 µM, first compound 0.0949 µM
[4] = second compound 1 µM, first compound 0.3 µM
[5] = second compound 1 µM, first compound 0.949 µM
[6] = second compound 1 µM, first compound 3 µM
[7] = second compound 3.16 µM, first compound 0.00949 µM
[8] = second compound 3.16 µM, first compound 0.03 µM
[9] = second compound 3.16 µM, first compound 0.0949 µM
[10] = second compound 3.16 µM, first compound 0.3 µM
[11] = second compound 3.16 µM, first compound 0.949 µM
[12] = second compound 3.16 µM, first compound 3 µM
[13] = second compound 10 µM, first compound 0.00949 µM
[14] = second compound 10 µM, first compound 0.03 µM
[15] = second compound 10 µM, first compound 0.0949 µM
[16] = second compound 10 µM, first compound 0.3 µM
[17] = second compound 10 µM, first compound 0.949 µM
[18] = second compound 10 µM, first compound 3 µM
[19] = second compound 31.6 µM, first compound 0.00949 µM
[20] = second compound 31.6 µM, first compound 0.03 µM
[21] = second compound 31.6 µM, first compound 0.0949 µM
[22] = second compound 31.6 µM, first compound 0.3 µM
[23] = second compound 31.6 µM, first compound 0.949 µM
[24] = second compound 31.6 µM, first compound 3 µM
[25] = second compound 100 µM, first compound 0.00949 µM
[26] = second compound 100 µM, first compound 0.03 µM
[27] = second compound 100 µM, first compound 0.0949 µM
[28] = second compound 100 µM, first compound 0.3 µM
[29] = second compound 100 µM, first compound 0.949 µM
[30] = second compound 100 µM, first compound 3 µM
[31] = second compound 1 µM, first compound 0.0316 µM
[32] = second compound 1 µM, first compound 0.1 µM
[33] = second compound 1 µM, first compound 0.316 µM
[34] = second compound 1 µM, first compound 1 µM
[35] = second compound 1 µM, first compound 3.16 µM
[36] = second compound 1 µM, first compound 10 µM
[37] = second compound 3.16 µM, first compound 0.0316 µM
[38] = second compound 3.16 µM, first compound 0.1 µM
[39] = second compound 3.16 µM, first compound 0.316 µM
[40] = second compound 3.16 µM, first compound 1 µM
[41] = second compound 3.16 µM, first compound 3.16 µM
[42] = second compound 3.16 µM, first compound 10 µM
[43] = second compound 10 µM, first compound 0.0316 µM
[44] = second compound 10 µM, first compound 0.1 µM
[45] = second compound 10 µM, first compound 0.316 µM
[46] = second compound 10 µM, first compound 1 µM
[47] = second compound 10 µM, first compound 3.16 µM
[48] = second compound 10 µM, first compound 10 µM
[49] = second compound 31.6 µM, first compound 0.0316 µM
[50] = second compound 31.6 µM, first compound 0.1 µM
[51] = second compound 31.6 µM, first compound 0.316 µM
[52] = second compound 31.6 µM, first compound 1 µM
[53] = second compound 31.6 µM, first compound 3.16 µM
[54] = second compound 31.6 µM, first compound 10 µM
[55] = second compound 100 µM, first compound 0.0316 µM
[56] = second compound 100 µM, first compound 0.1 µM
[57] = second compound 100 µM, first compound 0.316 µM
[58] = second compound 100 µM, first compound 1 µM
[59] = second compound 100 µM, first compound 3.16 µM
[60] = second compound 100 µM, first compound 10 µM

## CNCc1ccc(-c2cc(-c3nc(-c4ccc(S(=O)(=O)C(C)C)cc4)cnc3N)on2)cc1 + Cn1nnc2c(C(N)=O)ncn2c1=O
Second compound 1 µM
  IC50: 404 nM
Second compound 3.16 µM
  IC50: 370 nM
Second compound 10 µM
  IC50: 339 nM
Second compound 31.6 µM
  IC50: 289 nM
Second compound 100 µM
  IC50: 188 nM
[1]
  viability, T/C: 87.8%
[2]
  viability, T/C: 82%
[3]
  viability, T/C: 84%
[4]
  viability, T/C: 63.3%
[5]
  viability, T/C: 11.8%
[6]
  viability, T/C: 2.45%
[7]
  viability, T/C: 85.5%
[8]
  viability, T/C: 85.3%
[9]
  viability, T/C: 74.4%
[10]
  viability, T/C: 59.9%
[11]
  viability, T/C: 12.8%
[12]
  viability, T/C: 1.99%
[13]
  viability, T/C: 86.9%
[14]
  viability, T/C: 92.2%
[15]
  viability, T/C: 79.1%
[16]
  viability, T/C: 56.1%
[17]
  viability, T/C: 10.4%
[18]
  viability, T/C: 2.81%
[19]
  viability, T/C: 91.1%
[20]
  viability, T/C: 85%
[21]
  viability, T/C: 72.7%
[22]
  viability, T/C: 53.5%
[23]
  viability, T/C: 10.2%
[24]
  viability, T/C: 3.57%
[25]
  viability, T/C: 95.6%
[26]
  viability, T/C: 76.7%
[27]
  viability, T/C: 68%
[28]
  viability, T/C: 41.7%
[29]
  viability, T/C: 11.7%
[30]
  viability, T/C: 2.21%

## Cc1cc(C)c(CNC(=O)c2cc(-c3ccc(CN4CCOCC4)cc3)cc3c2cnn3C2CCCC2)c(=O)[nH]1 + Cn1nnc2c(C(N)=O)ncn2c1=O
Second compound 1 µM
  IC50: > 10000 nM
Second compound 3.16 µM
  IC50: > 10000 nM
Second compound 10 µM
  IC50: > 10000 nM
Second compound 31.6 µM
  IC50: > 10000 nM
Second compound 100 µM
  IC50: > 10000 nM
[31]
  viability, T/C: 114%
[32]
  viability, T/C: 97.9%
[33]
  viability, T/C: 101%
[34]
  viability, T/C: 113%
[35]
  viability, T/C: 117%
[36]
  viability, T/C: 104%
[37]
  viability, T/C: 99.2%
[38]
  viability, T/C: 102%
[39]
  viability, T/C: 92.7%
[40]
  viability, T/C: 97.6%
[41]
  viability, T/C: 110%
[42]
  viability, T/C: 101%
[43]
  viability, T/C: 102%
[44]
  viability, T/C: 100%
[45]
  viability, T/C: 101%
[46]
  viability, T/C: 109%
[47]
  viability, T/C: 108%
[48]
  viability, T/C: 104%
[49]
  viability, T/C: 91.2%
[50]
  viability, T/C: 96.8%
[51]
  viability, T/C: 94.8%
[52]
  viability, T/C: 110%
[53]
  viability, T/C: 104%
[54]
  viability, T/C: 96%
[55]
  viability, T/C: 103%
[56]
  viability, T/C: 108%
[57]
  viability, T/C: 92.1%
[58]
  viability, T/C: 102%
[59]
  viability, T/C: 122%
[60]
  viability, T/C: 109%

## Cc1sc2c(c1C)C(c1ccc(Cl)cc1)=NC(CC(=O)Nc1ccc(O)cc1)c1nnc(C)n1-2 (stereo not given) + Cn1nnc2c(C(N)=O)ncn2c1=O
Second compound 1 µM
  IC50: 103 nM
Second compound 3.16 µM
  IC50: 93.7 nM
Second compound 10 µM
  IC50: 83.1 nM
Second compound 31.6 µM
  IC50: 80.6 nM
Second compound 100 µM
  IC50: 68.6 nM
[1]
  viability, T/C: 83.5%
[2]
  viability, T/C: 69%
[3]
  viability, T/C: 51.6%
[4]
  viability, T/C: 33.5%
[5]
  viability, T/C: 25.9%
[6]
  viability, T/C: 17.1%
[7]
  viability, T/C: 81.3%
[8]
  viability, T/C: 68.3%
[9]
  viability, T/C: 50.7%
[10]
  viability, T/C: 31.1%
[11]
  viability, T/C: 19.9%
[12]
  viability, T/C: 17.7%
[13]
  viability, T/C: 81.2%
[14]
  viability, T/C: 65.2%
[15]
  viability, T/C: 49.1%
[16]
  viability, T/C: 30.8%
[17]
  viability, T/C: 24.8%
[18]
  viability, T/C: 15.8%
[19]
  viability, T/C: 81.1%
[20]
  viability, T/C: 61.1%
[21]
  viability, T/C: 51.2%
[22]
  viability, T/C: 31.9%
[23]
  viability, T/C: 21.3%
[24]
  viability, T/C: 12.4%
[25]
  viability, T/C: 91.2%
[26]
  viability, T/C: 60.1%
[27]
  viability, T/C: 47.5%
[28]
  viability, T/C: 29.5%
[29]
  viability, T/C: 14.4%
[30]
  viability, T/C: 7.67%

## Cn1ncnc1[C@H]1c2n[nH]c(=O)c3cc(F)cc(c23)N[C@@H]1c1ccc(F)cc1 + Cn1nnc2c(C(N)=O)ncn2c1=O
Second compound 1 µM
  IC50: 537 nM
Second compound 3.16 µM
  IC50: 216 nM
Second compound 10 µM
  IC50: 57.3 nM
Second compound 31.6 µM
  IC50: < 9.49 nM
Second compound 100 µM
  IC50: < 9.49 nM
[1]
  viability, T/C: 97.4%
[2]
  viability, T/C: 90.7%
[3]
  viability, T/C: 81.8%
[4]
  viability, T/C: 68.7%
[5]
  viability, T/C: 33.1%
[6]
  viability, T/C: 7.3%
[7]
  viability, T/C: 94.4%
[8]
  viability, T/C: 51.4%
[9]
  viability, T/C: 68.4%
[10]
  viability, T/C: 55.3%
[11]
  viability, T/C: 25.1%
[12]
  viability, T/C: 7.36%
[13]
  viability, T/C: 72.3%
[14]
  viability, T/C: 58.8%
[15]
  viability, T/C: 42.8%
[16]
  viability, T/C: 26.3%
[17]
  viability, T/C: 10.4%
[18]
  viability, T/C: 7.26%
[19]
  viability, T/C: 33%
[20]
  viability, T/C: 20.1%
[21]
  viability, T/C: 13.4%
[22]
  viability, T/C: 10.1%
[23]
  viability, T/C: 7.36%
[24]
  viability, T/C: 5.8%
[25]
  viability, T/C: 12.1%
[26]
  viability, T/C: 7.76%
[27]
  viability, T/C: 7.62%
[28]
  viability, T/C: 7.16%
[29]
  viability, T/C: 6.55%
[30]
  viability, T/C: 5.96%

## [2H]c1nc(C)nc([2H])c1-c1cc(NC[C@@H](C)c2cccc3c(C(=O)NC)ccnc23)ncn1 + Cn1nnc2c(C(N)=O)ncn2c1=O
Second compound 1 µM
  IC50: > 10000 nM
Second compound 3.16 µM
  IC50: > 10000 nM
Second compound 10 µM
  IC50: > 10000 nM
Second compound 31.6 µM
  IC50: > 10000 nM
Second compound 100 µM
  IC50: > 10000 nM
[31]
  viability, T/C: 108%
[32]
  viability, T/C: 105%
[33]
  viability, T/C: 106%
[34]
  viability, T/C: 94.7%
[35]
  viability, T/C: 95.8%
[36]
  viability, T/C: 92.5%
[37]
  viability, T/C: 111%
[38]
  viability, T/C: 90.1%
[39]
  viability, T/C: 90.2%
[40]
  viability, T/C: 91.1%
[41]
  viability, T/C: 98.3%
[42]
  viability, T/C: 97%
[43]
  viability, T/C: 111%
[44]
  viability, T/C: 94.6%
[45]
  viability, T/C: 97.5%
[46]
  viability, T/C: 101%
[47]
  viability, T/C: 94.1%
[48]
  viability, T/C: 95.6%
[49]
  viability, T/C: 114%
[50]
  viability, T/C: 103%
[51]
  viability, T/C: 105%
[52]
  viability, T/C: 99.2%
[53]
  viability, T/C: 89.4%
[54]
  viability, T/C: 85.6%
[55]
  viability, T/C: 103%
[56]
  viability, T/C: 102%
[57]
  viability, T/C: 107%
[58]
  viability, T/C: 104%
[59]
  viability, T/C: 99.9%
[60]
  viability, T/C: 96%
